Measured values taken from US10245249B2, “Pharmaceutical compositions comprising nitroxyl donors” (Cardioxyl Pharmaceuticals, Inc., priority 2013, dated 2019).

Assays:
[1] = In vitro stability (half-life) in phosphate buffered saline (PBS) pH 7.4; format: physicochemical; conditions: pH 7.4, 5 μM, PBS pH 7.4, 37° C., read-out: T1/2 (minutes) PBS
Protocol: (§1) Certain compounds from Tables 1 and 2 and CXL-1020 were tested for their stability in phosphate buffered saline (PBS) and plasma. The assay system comprised (i) PBS, or plasma from rat, dog or human (at least 3 donors, male, pooled) at pH 7.4, and (ii) for tests conducted in plasma, an anticoagulant (sodium heparin or sodium citrate). Each test compound (5 μM) was incubated in PBS or plasma at 37° C. on a THERMOMIXER® with shaking. Three samples (n=3) were taken at each of seven sampling time points: 0, 10, 30, 60, 90, 180 and 360 minutes. The samples were immediately combined with 3 volumes (i.e., 3 times the volume of PBS or plasma) of acetonitrile containing 1% formic acid and an internal standard to terminate the reaction. AB SCIEX API 3000 LC-MS/MS analysis of the test compounds was performed without a standard curve. Half-lives (T1/2) of the test compounds were determined from graphs of the percent remaining values using the peak area response ratio. For compounds tested multiple times, the value provided in the Table represents an average of the replicate assays.

[2] = In vitro stability (half-life) in dog plasma; format: in vitro ADME; conditions: male, dog, plasma, pH 7.4, 5 μM, dog plasma pH 7.4 with anticoagulant, 37° C.; read-out: T1/2 (minutes) Dog
Protocol: as §1

[3] = HNO production determined via N2O quantification (GC headspace analysis); format: physicochemical; conditions: PBS, 37° C.
Description: Nitrous oxide (N2O) is produced via the dimerization and dehydration of HNO, and is the most common marker for nitroxyl production (Fukuto et al., Chem. Res. Toxicol. 18:790-801 (2005)). […] Using either nitrous oxide gas or Angeli's salt (AS) as a standard, the relative amounts of N2O released from compounds of the disclosure was examined via gas chromatography (GC) headspace analysis.
A procedure for determining the relative amounts of N2O released from compounds of the disclosure is as follows. GC was performed on an Agilent gas chromatograph equipped with a split injector (10:1 splitting), microelectron capture detector, and a HP-MOLSIV 30 m×0.32 mm×25 μm molecular sieve capillary column. Helium was used as the carrier (4 mL/min) gas and nitrogen was used as the make-up (20 mL/min) gas. The injector oven and the detector oven were kept at 200° C. and 325° C., respectively. All nitrous oxide analyses were performed with the column oven held at a constant temperature of 200° C.
All gas injections were made using an automated headspace analyzer. Vial pressurization was 15 psi. The analyzer's sample oven, sampling valve, and transfer line were kept at 40° C., 45° C., and 50° C., respectively. The oven stabilization, vial pressurization, loop fill, loop equilibration, and sample injection times were 1.00 min., 0.20 min., 0.20 min., 0.05 min., and 1.00 min., respectively.
All determinations used a batch of nominal 20 mL headspace vials with volumes pre-measured for sample uniformity (actual vial volume varied by <2.0% relative standard deviation (n=6)). The average vial volume for the batch was determined from six randomly-selected vials by calculating the weight difference between the capped and sealed empty (i.e., air-filled) vial and the capped and sealed deionized water-filled vial using the known density of deionized water, then averaging. Blanks were prepared by sealing and capping two vials then purging each for 20 seconds with a gentle argon stream. Nitroxyl standards were prepared by sealing and capping four vials then purging each for 1 minute with a gentle stream, from a gas cylinder, of a 3000 ppm […].
CXL-1020 (N-hydroxy-2-methanesulfonylbenzene-1-sulfonamide) “standards” were prepared by, in duplicate, accurately weighing 10±0.5 mg of CXL-1020 and adding it to each 4 mL vial. Using an auto pipette, 1 mL of argon-purged anhydrous DMF (Sigma-Aldrich) was added to each 4 mL vial to form a CXL-1020 stock solution for each sample and the vials were capped and shaken and/or sonicated to insure complete dissolution upon visual observation. Using an auto pipette, 20 mL vials were charged with 5 mL of PBS (purged for at least 30 min. with argon prior to use), purged with argon for at least 20 sec., and sealed with a rubber septum. Using a 50 μL syringe, 50 μL of the CXL-1020 stock solution was injected into each 20 mL vial containing the PBS.
Samples were prepared as follows. In duplicate, 18±1 mg of each sample was accurately weighed into each 4 mL vial. Using an auto pipette, 1 mL of argon-purged anhydrous DMF was added to each 4 mL vial to form a sample stock solution for each sample and the vials were capped and shaken and/or sonicated to insure complete sample dissolution upon visual observation. Using an auto pipette, 20 mL vials were charged with 5 mL of PBS (purged for at least 30 min. with argon prior to use), purged with argon for at least 20 sec., and sealed with a rubber septum. The vials were equilibrated for at least 10 min. at 37° C. in a dry block heater. Thereafter, using a 50 μL syringe, 50 μL of a sample stock solution was injected into each 20 mL vial containing the PBS. The vials were then held at 37° C. in the dry block heater for a time period such that the sum of the time spent in the dry block heater plus the time spent in the automated headspace analyzer oven before sample injection equaled the desired incubation time. […]

[4] = In vitro stability (half-life) in rat plasma; format: in vitro ADME; conditions: rat plasma pH 7.4 with anticoagulant, 37° C.; for half-life at 5 μM: male, rat, plasma, pH 7.4, 5 μM, read-out: T1/2 (minutes) Rat
Protocol: as §1

Row | half-life at 5 μM [1] [min] | half-life at 5 μM [2] [min] | half-life at 5 μM [4] [min] | T1/2 (minutes) Rat ([4]; 5 μM) [min] | Compound | Relative N2O Yield (90 minutes incubation) [3] [%] | Relative N2O Yield (360 minutes incubation) [3] [%]
1 | 224 | 56 |  |  | Cc1cc(S(=O)(=O)NO)c(C(F)(F)F)o1 [Compound 7, N-Hydroxy-5-methyl-2-(trifluoromethyl)furan-3-sulfonamide] | 51 | 
2 | 42 | 27 |  |  | CS(=O)(=O)c1cc(S(=O)(=O)NO)cs1 [Compound 8, N-Hydroxy-5-methanesulfonylthiophene-3-sulfonamide] | 77 | 
3 | 2 |  | > 360 |  | CC(=O)N1CCc2cc(Br)c(S(=O)(=O)NO)cc21 [Compound 9, 1-Acetyl-5-bromo-N-hydroxy-2,3-dihydro-1H-indole-6-sulfonamide] | 53 | 71
4 | 5 |  | < 5 |  | CC(=O)N1CCc2cc(Cl)c(S(=O)(=O)NO)cc21 [Compound 11, 1-Acetyl-5-chloro-N-hydroxy-2,3-dihydro-1H-indole-6-sulfonamide] | 55 | 81
5 | 42 |  |  |  | COc1ccc2cc(S(=O)(=O)NO)oc2c1 [Compound 13, N-Hydroxy-6-methoxy-1-benzofuran-2-sulfonamide] | 86 | 
6 | 75 |  | 13 |  | Cc1ccc(S(=O)(=O)NO)c(F)c1 [Compound 14, 2-Fluoro-N-hydroxy-4-methylbenzene-1-sulfonamide] | 48 | 70
7 | 63 |  |  |  | O=S(=O)(NO)c1ccc2nsnc2c1 [Compound 15, N-Hydroxy-2,1,3-benzothiadiazole-5-sulfonamide] | 59 | 71
8 | 20 |  |  |  | CS(=O)(=O)c1csc(S(=O)(=O)NO)c1 [Compound 16, N-Hydroxy-4-methanesulfonylthiophene-2-sulfonamide] | 86 | 
9 | 59 |  | > 360 |  | COc1ccc(Br)cc1S(=O)(=O)NO [Compound 17, 5-Bromo-N-hydroxy-2-methoxybenzene-1-sulfonamide] | 53 | 77
10 | 56 |  | > 360 |  | Cc1cc(S(=O)(=O)NO)c(C)cc1Cl [Compound 18, 4-Chloro-N-hydroxy-2,5-dimethylbenzene-1-sulfonamide] | 56 | 73
11 | 44 |  |  |  | CCN(CC)C(=O)c1ccc(S(=O)(=O)NO)s1 [Compound 19, N,N-Diethyl-5-(hydroxysulfamoyl)thiophene-2-carboxamide] | 77 | 
12 |  |  |  | 7 | Cc1ccc(F)cc1S(=O)(=O)NO [Compound 20, 5-Fluoro-N-hydroxy-2-methylbenzene-1-sulfonamide] | 90 | 
13 | 39 |  | 36 |  | O=C(c1ccc(S(=O)(=O)NO)s1)N1CCOCC1 [Compound 21, N-Hydroxy-5-(morpholine-4-carbonyl)thiophene-2-sulfonamide] | 73.5 | 
14 | 33 |  | 23 |  | CC(C)NC(=O)c1ccc(S(=O)(=O)NO)s1 [Compound 22, 5-(Hydroxysulfamoyl)-N-(propan-2-yl)thiophene-2-carboxamide] | 85 | 
15 | 37 |  | 14 |  | O=S(=O)(NO)c1cccc2nsnc12 [Compound 24, N-Hydroxy-2,1,3-benzothiadiazole-4-sulfonamide] | 60 | 69
16 | 86 |  |  |  | COc1ccccc1S(=O)(=O)NO [Compound 25, N-Hydroxy-2-methoxybenzene-1-sulfonamide] | 7 | 28
17 | 136 |  |  |  | O=C(c1cc(S(=O)(=O)NO)cs1)N1CCOCC1 [Compound 28, N-Hydroxy-5-(morpholine-4-carbonyl)thiophene-3-sulfonamide] | 74 | 
18 | 385 |  |  |  | Cc1nn(C)c(Cl)c1S(=O)(=O)NO [Compound 30, 5-Chloro-N-hydroxy-1,3-dimethyl-1H-pyrazole-4-sulfonamide] | 27 | 
19 | 61 |  | 32 |  | O=S(=O)(NO)c1ccccn1 [Compound 32, N-Hydroxypyridine-2-sulfonamide] | 71 | 
20 | 58 |  | 19 |  | O=C(c1csc(S(=O)(=O)NO)c1)N1CCOCC1 [Compound 35, N-Hydroxy-4-(morpholine-4-carbonyl)thiophene-2-sulfonamide] | 100 | 
21 | 30 |  | 29 |  | Cc1cc(F)ccc1S(=O)(=O)NO [Compound 39, 4-Fluoro-N-hydroxy-2-methylbenzene-1-sulfonamide] | 60 | 75
22 | 11 |  | < 5 |  | O=[N+]([O-])c1cc(S(=O)(=O)NO)sc1Cl [Compound 47, 5-Chloro-N-hydroxy-4-nitrothiophene-2-sulfonamide] | 58 | 70
23 | 87 |  | 13 |  | Cc1ccc(C)c(S(=O)(=O)NO)c1 [Compound 49, N-Hydroxy-2,5-dimethylbenzene-1-sulfonamide] | 42 | 68
24 | 15 |  | 7 |  | O=S(=O)(NO)c1cc(S(=O)(=O)c2ccccc2)cs1 [Compound 51, 4-(Benzenesulfonyl)-N-hydroxythiophene-2-sulfonamide] | 96 | 
25 | 34 |  | 8 |  | Cc1ccc(F)c(S(=O)(=O)NO)c1 [Compound 56, 2-Fluoro-N-hydroxy-5-methylbenzene-1-sulfonamide] | 72 | 78
26 | > 360 |  | > 360 |  | O=S(=O)(NO)c1ccc(Cl)c(Cl)c1 [Compound 95, 3,4-Dichloro-N-hydroxybenzene-1-sulfonamide] |  | 
